Experimental data: patent US20210395217A1, “PESTICIDALLY ACTIVE AZOLE-AMIDE COMPOUNDS” (SYNGENTA PARTICIPATIONS AG, priority 2018, published 2021)

Key:
Assay type in all cases: in vivo
Diabrotica balteata = assay: Example B1: Diabrotica balteata (corn root worm), maize sprouts sprayed, L2 larvae; conditions: 96 h, application rate of 200 ppm, 4 days after infestation, read-out: control in at least one of the two categories (mortality or growth inhibition)
Experimental: Example B1: Diabrotica balteata (Corn Root Worm)
Maize sprouts placed onto an agar layer in 24-well microtiter plates were treated with aqueous test solutions prepared from 10′000 ppm DMSO stock solutions by spraying. After drying, the plates were infested with L2 larvae (6 to 10 per well). The samples were assessed for mortality and growth inhibition in comparison to untreated samples 4 days after infestation.
The following compounds gave an effect of at least 80% control in at least one of the two categories (mortality or growth inhibition) at an application rate of 200 ppm: […]

Euschistus heros = assay: Example B2: Euschistus heros (neotropical brown stink bug), soybean leaves sprayed, N2 nymphs; conditions: 120 h, application rate of 200 ppm, 5 days after infestation, read-out: control in at least one of the two categories (mortality or growth inhibition)
Experimental: Example B2: Euschistus heros (Neotropical Brown Stink Bug)
Soybean leaves on agar in 24-well microtiter plates were sprayed with aqueous test solutions prepared from 10′000 ppm DMSO stock solutions. After drying the leaves were infested with N2 nymphs. The samples were assessed for mortality and growth inhibition in comparison to untreated samples 5 days after infestation.
The following compounds gave an effect of at least 80% control in at least one of the two categories (mortality or growth inhibition) at an application rate of 200 ppm: F2, F4, F6, F8, F12, F16.

Chilo suppressalis = assay: Example B3: Chilo suppressalis (striped rice stem borer), artificial diet, L2 larvae; conditions: 144 h, application rate of 200 ppm, 6 days after infestation, read-out: control in at least one of the three categories (mortality, anti-feedant effect, or growth inhibition)
Experimental: Example B3: Chilo suppressalis (Striped Rice Stem Borer)
24-well microtiter plates with artificial diet were treated with aqueous test solutions prepared from 10′000 ppm DMSO stock solutions by pipetting. After drying, the plates were infested with L2 larvae (6-8 per well). The samples were assessed for mortality, anti-feeding effect, and growth inhibition in comparison to untreated samples 6 days after infestation. Control of Chilo suppressalis by a test sample is given when at least one of the categories mortality, anti-feedant effect, and growth inhibition is higher than the untreated sample.

Plutella xylostella [1] = assay: Example B4: Plutella xylostella (diamond back moth), artificial diet, 24-well, eggs; conditions: 192 h, application rate of 200 ppm, 8 days after infestation, 24-well plates, read-out: control in at least one of the two categories (mortality or growth inhibition)
Experimental: Example B4: Plutella xylostella (Diamond Back Moth)
24-well microtiter plates with artificial diet were treated with aqueous test solutions prepared from 10′000 ppm DMSO stock solutions by pipetting. After drying, Plutella eggs were pipetted through a plastic stencil onto a gel blotting paper and the plate was closed with it. The samples were assessed for mortality and growth inhibition in comparison to untreated samples 8 days after infestation. The following compounds gave an effect of at least 80% control in at least one of the two categories (mortality or growth inhibition) at an application rate of 200 ppm: […]

Myzus persicae [2] = assay: Example B6: Myzus persicae (green peach aphid), intrinsic activity, sucrose solution, 24-well; conditions: 120 h, test rate of 12 ppm, 5 days after infestation
Excerpt: Example B6: Myzus Persicae (Green Peach Aphid): Intrinsic Activity
Test compounds prepared from 10′000 ppm DMSO stock solutions were applied by pipette into 24-well microtiter plates and mixed with sucrose solution. The plates were closed with a stretched Parafilm. A plastic stencil with 24 holes was placed onto the plate and infested pea seedlings were placed directly on the Parafilm. The infested plate was closed with a gel blotting paper and another plastic stencil and then turned upside down. The samples were assessed for mortality 5 days after infestation.

Spodoptera littoralis [3] = assay: Example B7: Spodoptera littoralis (Egyptian cotton leaf worm), cotton leaf discs sprayed, L1 larvae; conditions: foliar, 72 h, application rate of 200 ppm, 3 days after infestation, read-out: control in at least one of the three categories (mortality, anti-feedant effect, or growth inhibition)
Experimental: Example B7: Spodoptera littoralis (Egyptian Cotton Leaf Worm)
Cotton leaf discs were placed onto agar in 24-well microtiter plates and sprayed with aqueous test solutions prepared from 10′000 ppm DMSO stock solutions. After drying the leaf discs were infested with five L1 larvae. The samples were assessed for mortality, anti-feeding effect, and growth inhibition in comparison to untreated samples 3 days after infestation. Control of Spodoptera littoralis by a test sample is given when at least one of the categories mortality, anti-feedant effect, and growth inhibition is higher than the untreated sample.

Spodoptera littoralis [4] = assay: Example B8: Spodoptera littoralis (Egyptian cotton leaf worm), uptake by lettuce roots from agar, eggs; conditions: 144 h, test rate of 12.5 ppm, 6 days after infestation, compound absorbed by lettuce roots, read-out: control in at least one of the three categories (mortality, anti-feeding, or growth inhibition)
Excerpt: Example B8: Spodoptera Littoralis (Egyptian Cotton Leaf Worm)
Test compounds were applied by pipette from 10′000 ppm DMSO stock solutions into 24-well plates and mixed with agar. Lettuce seeds were placed onto the agar and the multi well plate was closed by another plate which contained also agar. After 7 days the compound was absorbed by the roots and the lettuce grew into the lid plate. The lettuce leaves were then cut off into the lid plate. Spodoptera eggs were pipetted through a plastic stencil onto a humid gel blotting paper and the lid plate was closed with it. The samples were assessed for mortality, anti-feedant effect and growth inhibition in comparison to untreated samples 6 days after infestation.
The following compounds gave an effect of at least 80% control in at least one of the three categories (mortality, anti-feeding, or growth inhibition) at a test rate of 12.5 ppm: […]

Myzus persicae [5] = assay: Example B9: Myzus persicae (green peach aphid), sucrose solution, 96-well; conditions: 120 h, application rate of 50 ppm, 5 days after infestation, 96-well plates
Excerpt: Example B9: Myzus persicae (Green Peach Aphid)
Test compounds prepared from 10′000 ppm DMSO stock solutions were applied by a liquid handling robot into 96-well microtiter plates and mixed with a sucrose solution. Parafilm was stretched over the 96-well microtiter plate and a plastic stencil with 96 holes was placed onto the plate. Aphids were sieved into the wells directly onto the Parafilm. The infested plates were closed with a gel blotting card and a second plastic stencil and then turned upside down. The samples were assessed for mortality 5 days after infestation.

Plutella xylostella [6] = assay: Example B10: Plutella xylostella (diamondback moth), artificial diet, 96-well, eggs; conditions: 216 h, application rate of 500 ppm, 9 days after infestation, 96-well plates
Experimental: Example B10: Plutella xylostella (Diamondback Moth)
96-well microtiter plates containing artificial diet were treated with aqueous test solutions, prepared from 10′000 ppm DMSO stock solutions, by a liquid handling robot. After drying, eggs (˜30 per well) were infested onto a netted lid which was suspended above the diet. The eggs hatch and L1 larvae move down to the diet. The samples were assessed for mortality 9 days after infestation.
The following compounds gave an effect of at least 80% average mortality at an application rate of 500 ppm: […]

Myzus persicae [7] = assay: Example B5: Myzus persicae (green peach aphid), feeding/contact activity, sunflower leaf discs; conditions: foliar, 144 h, application rate of 200 ppm, 6 days after infestation
Experimental: Example B5: Myzus persicae (Green Peach Aphid): Feeding/Contact Activity
Sunflower leaf discs were placed onto agar in a 24-well microtiter plate and sprayed with aqueous test solutions prepared from 10′000 ppm DMSO stock solutions. After drying, the leaf discs were infested with an aphid population of mixed ages. The samples were assessed for mortality 6 days after infestation.

CC(c1ncnn1-c1ccc(C#N)cn1)N(C)C(=O)c1cc(C(F)(F)F)cc(C(F)(F)F)c1 (centres unmarked) [Compound F2, N-[1-[2-(5-cyano-2-pyridyl)-1,2,4-triazol-3-yl]ethyl]-N-methyl-3,5-bis(trifluoromethyl) benzamide]
≥ 80%: percent control (mortality or growth inhibition) at 200 ppm (Diabrotica balteata) | percent control (mortality or growth inhibition) at 200 ppm (Euschistus heros) | percent control (mortality, anti-feedant effect or growth inhibition) at 200 ppm (Chilo suppressalis) | percent control (mortality or growth inhibition) at 200 ppm (Plutella xylostella [1]) | mortality at 12 ppm (Myzus persicae [2]) | percent control (mortality, anti-feedant effect or growth inhibition) at 200 ppm (Spodoptera littoralis [3]) | percent control (mortality, anti-feeding or growth inhibition) at 12.5 ppm (Spodoptera littoralis [4]) | mortality at 50 ppm (Myzus persicae [5]) | mortality at 500 ppm (Plutella xylostella [6])

Cc1nc(C(C)N(C)C(=O)c2cc(C(F)(F)F)cc(C(F)(F)F)c2)n(-c2ccc(C#N)cn2)n1 (centres unmarked) [Compound F16, N-[1-[2-(5-cyano-2-pyridyl)-5-methyl-1,2,4-triazol-3-yl]ethyl]-N-methyl-3,5-bis(trifluoromethyl) benzamide]
≥ 80%: percent control (mortality or growth inhibition) at 200 ppm (Diabrotica balteata) | percent control (mortality or growth inhibition) at 200 ppm (Euschistus heros) | percent control (mortality, anti-feedant effect or growth inhibition) at 200 ppm (Chilo suppressalis) | percent control (mortality or growth inhibition) at 200 ppm (Plutella xylostella [1]) | mortality at 200 ppm (Myzus persicae [7]) | mortality at 12 ppm (Myzus persicae [2]) | percent control (mortality, anti-feedant effect or growth inhibition) at 200 ppm (Spodoptera littoralis [3]) | mortality at 50 ppm (Myzus persicae [5])
